We go through 5 compounds from patent US20240382493A1, “METHODS FOR TREATING SYSTEMIC MASTOCYTOSIS AND GASTROINTESTINAL STROMAL TUMORS” (Blueprint Medicines Corporation, priority 2023, published 2024).

Where two headings read alike, the source gives them in different places.

For data set [1] the following is noted: patients with severe hepatic impairment; cited from earlier work.
A short description of data set [2]: clinical. The conditions noted are these: human, in vivo, po, Tmax median treatment difference.
Excerpt: (§1) Subjects with chronic, stable, severe HI with features of cirrhosis due to any etiology were enrolled, and the Child-Pugh scale was used to classify the severity of liver disease. The scale employs 5 clinical measures of liver disease. Each measure is scored 1 to 3, with 3 indicating most severe derangement. Subjects' scores of 10 to 15 on this scale are classified as having severe hepatic impairment.
(§2) The control subjects were matched in a 1:1 ratio to subjects with severe hepatic impairment for age, body mass index (BMI), and sex variables.
Data set [3] can be described thus: Clinical study BLU-285-0107: single 100 mg oral dose, severe hepatic impairment vs matched control subjects, plasma PK.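 On all read-outs here: severe hepatic impairment meant chronic stable cirrhosis with a Child-Pugh score of 10–15, and each such subject was paired one-to-one with a control of similar age, BMI and sex.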 As to conditions: single oral 100 mg; for CL/F GeoMean / AUC(0-t) / AUC(0-inf) / Cmax / Tmax / Vd/F / half-life: total plasma avapritinib; for CLu/F GeoMean / Cumax GeoMean / AUC: unbound plasma avapritinib; for AUC(0-t) / AUC(0-inf) / AUC / Cmax / Tmax / Vd/F / half-life: human, plasma, po, 100 mg; for AUC(0-inf): AUC0-∞ GeoMean; for Cmax: Cmax GeoMean; for Tmax: Tmax median; for Vd/F: Vz/F GeoMean; for half-life: t1/2 arithmetic mean.
Excerpt: as §1, §2

The nature of data set [4]: Post-hoc analysis of pooled data of 343 patients: clearance by hepatic function. Type of data set: in vivo, human. The conditions noted are these: pooled data of 343 patients (284 normal, 53 mild HI, 6 moderate HI). The source says:
As per the current avapritinib labeling, no dose adjustment is recommended for patients with mild or moderate HI.

The conditions of data set [5]: cited from earlier work.

In the case of `CCOc1cc2ncc(C#N)c(Nc3ccc(OCc4ccccn4)c(Cl)c3)c2cc1NC(=O)/C=C/CN(C)C` [neratinib], in data set [1], the “exposure (AUC) increased” value is 181% and the “exposure (Cmax) increased” value is 173%.

What is called Tmax is the time from dosing to the highest level. With `Cn1cc(-c2cc3c(N4CCN(c5ncc([C@](C)(O)c6ccc(F)cc6)cn5)CC4)ncnn3c2)cn1` [Metabolite A], in data set [2], the time of peak concentration (Tmax) was found to be 14.1 h.

With `Cn1cc(-c2cc3c(N4CCN(c5ncc([C@@](C)(O)c6ccc(F)cc6)cn5)CC4)ncnn3c2)cn1` [Metabolite B], the time of peak concentration (Tmax) in data set [2] is 80 h.

A word on the AUC(0-t): it is the area under the concentration-time curve up to a stated or last time point. A higher AUC(0-t) goes with high exposure. A word on the AUC(0-inf): it is total exposure, with the tail of the curve extrapolated. By AUC is commonly meant the area under the concentration-time curve, a measure of exposure. Low readings indicate less exposure, high ones more exposure. What is called Cmax is the highest concentration seen after dosing. Usually Vd/F stands for the volume of distribution divided by bioavailability. For orientation: half-life means how long it takes for the measured level to halve. As for `Cn1cc(-c2cc3c(N4CCN(c5ncc([C@@](C)(N)c6ccc(F)cc6)cn5)CC4)ncnn3c2)cn1` [Avapritinib, (S)-1-(4-fluorophenyl)-1-(2-(4-(6-(1-methyl-1H-pyrazol-4-yl)pyrrolo [2,1-f][1,2,4]triazin-4-yl)piperazin-yl)pyrimidin-5-yl)ethan-1-amine], the “CL/F GeoMean” value in data set [3] (Matched Control) was 15.21 L/h; in data set [3] (Severe HI), 12.72 L/h. For the same compound, the figures for the “CLu/F GeoMean” value in data set [3] (Matched Control) and in data set [3] (Severe HI) were 1534 L/h and 950.6 L/h, respectively. In addition, the figures for the “Cumax GeoMean” value in data set [3] (Matched Control) and in data set [3] (Severe HI) were 1.197 ng/mL and 1.293 ng/mL, respectively. In addition, the AUC(0-t) in data set [3] (AUC0-24 GeoMean, Matched Control) was 1610 ng·h/mL; in data set [3] (AUC0-24 GeoMean, Severe HI), 1370 ng·h/mL; in data set [3] (AUC0-240 GeoMean, Matched Control) it was 6030 ng·h/mL; in data set [3] (AUC0-240 GeoMean, Severe HI), 6500 ng·h/mL. In addition, the figures for the AUC(0-inf) in data set [3] (Matched Control) and in data set [3] (Severe HI) were 6570 ng·h/mL and 7860 ng·h/mL, respectively. Moreover, the AUC in data set [3] (AUCu0-24 GeoMean, Matched Control) worked out at 15.9 ng·h/mL; in data set [3] (AUCu0-24 GeoMean, Severe HI) it was 18.3 ng·h/mL; in data set [3] (AUCu0-240 GeoMean, Matched Control), 59.8 ng·h/mL; in data set [3] (AUCu0-240 GeoMean, Severe HI), 87 ng·h/mL; in data set [3] (AUCu0-∞ GeoMean, Matched Control) it was 65.2 ng·h/mL; in data set [3] (AUCu0-∞ GeoMean, Severe HI), 105 ng·h/mL. Further, the Cmax is 121 ng/mL in data set [3] (Matched Control) and 96.6 ng/mL in data set [3] (Severe HI). In addition, the figures for the time of peak concentration (Tmax) in data set [3] (Matched Control) and in data set [3] (Severe HI) were 2.25 h and 1.5 h, respectively. Further, the Vd/F came to 1330 L in data set [3] (Matched Control) and 1710 L in data set [3] (Severe HI). Also, the half-life is 2.67 days in data set [3] (Matched Control) and 4.03 days in data set [3] (Severe HI). Further, the “clearance between patients with normal liver function, mild HI and moderate HI” value in data set [4] was “similar”.

As for `N#Cc1ccccc1-c1cc(-c2ccccn2)cn(-c2ccccc2)c1=O` [perampanel], the “AUC higher compared to normal” value in data set [5] (patients with mild HI) is 50%; in data set [5] (patients with moderate HI), 2.5 fold.
